In the METLIN SMRT retention time set (Domingo-Almenara et al. 2019) one finds RP-LC retention time data, which are given here for 81 compounds.

The nature of the data set: gradient 5% acetonitrile 3 min, to 50% in 2 min, to 85% in 15 min, held 3 min, 100 µL/min. The conditions noted are these: column: Zorbax Extend-C18 2.1 x 50 mm; eluents: water / acetonitrile, 0.1% formic acid. The procedure, abridged: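 Each retention time is based on an adduct peak selected computationally and verified by manual inspection. Measurements used HPLC–quadrupole time-of-flight mass spectrometry in positive and negative ionization mode on mixtures of ~100 pure standards. Chromatography ran on a Zorbax Extend-C18 column (2.1 × 50 mm, 1.8 μm) at 100 μL/min with water and acetonitrile, each containing 0.1% formic acid, and dead and dwell volumes of 40 μL and 900 μL.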
Consider `CCCCc1ccc(NC(=O)N2CCc3nc[nH]c3C2)cc1`, for which the RP-LC retention time amounted to 675 s.
`Cc1cc(OCC(=O)N2CCCC(C)C2)nc(-c2ccc(Cl)cc2)n1` (stereo unspecified) had an RP-LC retention time of 1140 s.
For `Cc1cccc(NC(=O)Cn2ccc3ccc(-c4nnc(C)o4)cc32)n1` the value was 700 s.
In turn, `CC(=O)N1CCCC(C(=O)N2CCOCC2)C1` (stereo unspecified) yielded an RP-LC retention time of 554 s.
Next, `Cc1ccc(C)c(NC(=O)c2cn(-c3ncccc3-c3nc(C(C)C)no3)cn2)c1`: 1010 s.
As to `CC(C)NC(=O)N1CC(c2nc(-c3cccnc3)no2)C2(CCOCC2)C1` (stereo unspecified), the RP-LC retention time is 635 s.
`CC(=O)N1CCc2cc(-c3ccc(C(=O)N4CCC(C)CC4)cc3)ccc21` yielded an RP-LC retention time of 889 s.
`CCC(C)C(NC(=O)c1ccc(F)cc1)C(=O)Nc1nc2ccccc2[nH]1` (stereo unspecified): the RP-LC retention time stood at 746 s.
For `O=C(Cn1cccc1-c1nc(-c2ccccc2)cs1)N1CCOCC1` the value was 934 s; for `O=C(Cc1c(Sc2cccc(F)c2)[nH]c2ccccc12)N1CCN(c2ccccn2)CC1`, 699 s.
With `O=C(c1cc(-c2ccccn2)n[nH]1)N1CCN(C(=O)C2CCC2)CC1`, the RP-LC retention time turned out to be 612 s.
`Cc1cnc(C2CCOCC2)n1C1CCCN(Cc2c[nH]c3ccccc23)C1` (stereo unspecified) came in with an RP-LC retention time of 557 s.
`COc1ccc2c(c1)CCc1sc(NC(=O)c3cc(Cl)ccc3OC)nc1-2`: the RP-LC retention time worked out at 1270 s.
Next, `CCCS(=O)(=O)N1CCc2ccc(NC(=O)Nc3cc(Cl)ccc3OC)cc2C1`: 995 s; `CC(C)n1cnc2cc(CNC(=O)CCc3ccccc3)ccc21`: 631 s; `CC1CCCCN1CCCNC(=O)C1CCCN(c2ncnc3c2nc2n3CCCCC2)C1` (stereo unspecified): 589 s.
For `COc1cc(N)c(Cl)cc1C(=O)OCCCN1CCCCC1`, the RP-LC retention time stood at 655 s.
On to `CN1CCC(NC(=O)c2n[nH]c3c2CN(C(=O)c2ccc(F)cc2F)CC3)CC1`, for which the RP-LC retention time worked out at 578 s.
As to `Cc1nc2c(sc3nc(-c4ccccc4)ccc32)c(=O)n1CC(=O)Nc1cccc(Cl)c1`, the RP-LC retention time was 1120 s.
With `CCc1nccn1Cc1noc(-c2cccc(Cl)c2)n1`, the RP-LC retention time came out at 656 s.
The compound `CCc1noc(NC(C)=O)c1-c1ccc(C)c(S(=O)(=O)N2CCCc3ccccc32)c1` displayed an RP-LC retention time of 953 s.
For `Cc1cc(C(=O)Nc2ccc3scnc3c2)no1`, the RP-LC retention time amounted to 645 s.
With `CS(=O)(=O)N1CCC(C(=O)Nc2ccc3cn[nH]c3c2)CC1`, the RP-LC retention time was determined as 588 s.
Next, `Cc1noc(C2(NC(=O)c3ccc(C(F)(F)F)cc3)CCCCC2)n1`: 711 s; `CC1CCN(c2cc(-n3ccnc3)ncn2)CC1`: 651 s.
Turning to `Cc1cc(N2CCN(C(=O)c3ccco3)CC2)nc(N2CCOCC2)n1`, the RP-LC retention time came to 566 s.
Next, `COc1cc(CN2CCC3(CCC3O)CC2)ccc1OC(C)C` (stereo unspecified): 614 s.
Compound `COc1ccc2c(c1)C1(CCN(S(=O)(=O)c3ccc(F)c(C)c3)C1)C(=O)N2C` (stereo unspecified) had an RP-LC retention time of 973 s.
Regarding `Cc1sc(-c2cc(C(F)(F)F)on2)cc1S(=O)(=O)N1CCN(c2ccccc2)CC1`, the RP-LC retention time came out at 1300 s.
With `CC(C)C(=O)Nc1ccc(C2(C(=O)NCc3ccco3)CCCCC2)cc1`, the RP-LC retention time turned out to be 889 s.
Next, `Cc1nc(N2CCOCC2)c2c(C(=O)Nc3cccc(C(F)(F)F)c3)c(C)oc2n1`: 955 s; `Cc1cc(-n2c(C)nc3ccccc3c2=O)ccc1NC(=O)C(C)Oc1cccc(Cl)c1` (stereo unspecified): 935 s; `Cc1cccc(N(C)C(=O)c2cccc(NC(=O)[C@H]3[C@@H]4C[C@@H]5[C@H]3C(=O)O[C@@H]5C4)c2)c1`: 782 s.
Consider `Cn1c(=O)sc2cc(S(=O)(=O)N3CCC(C(=O)N4CCCCC4)CC3)ccc21`, for which the RP-LC retention time was 764 s.
Next, `CCOC(=O)C1CCN(C(=O)c2ccc3c(c2)CCCN3S(=O)(=O)CC)CC1`: 798 s.
Next, `Cc1ccc(C)c(N2CCN(C(=O)Cn3c(=O)c4nncn4c4ncccc43)CC2)c1`: 790 s; `O=S(=O)(c1ccc(F)cc1F)N1CC(COc2ccncc2)C2(CCOCC2)C1` (stereo unspecified): 613 s; `COc1ccc(NC(=O)C2CN(S(=O)(=O)c3cccnc3)CC23CCCCC3)cc1` (stereo unspecified): 890 s.
Compound `Cc1ccc(NC(=O)C(=O)NCC2(O)CCOCC2)cc1N1CCCC1=O` yielded an RP-LC retention time of 575 s.
Take `Cc1ccc(CNC(=O)NCCC2CCN(S(=O)(=O)c3ccc(F)cc3)CC2)cc1`: the RP-LC retention time turned out to be 896 s.
For `Cc1cc(C)cc(C(=O)N2CCCC(COc3ccc(C(=O)NC(C)C)cc3)C2)c1` (stereo unspecified) the value was 931 s.
`O=S(=O)(c1cccnc1)N1CC(c2nc(CCOCC3CCOCC3)no2)C1` came in with an RP-LC retention time of 710 s.
Consider `Oc1ccc(-c2nc3ccc(Cl)cn3c2Nc2ccc3c(c2)OCCO3)cc1`, for which the RP-LC retention time stood at 748 s.
The compound `Cc1c(Cl)cccc1NC(=O)N1CCC(c2cc(N)on2)CC1` returned an RP-LC retention time of 736 s.
Next, `CCN1CCCn2cc(S(=O)(=O)N3CCN(c4ccccc4F)CC3)cc2C1=O`: 829 s.
`Cc1cccc(NS(=O)(=O)c2cc(-c3[nH]ncc3C(=O)N(C)C)oc2C)c1` gave an RP-LC retention time of 678 s.
The compound `Fc1ccc(-c2nnc(Cc3nc(-c4cccs4)no3)o2)cc1` returned an RP-LC retention time of 926 s.
For the compound `CC(C)c1cccc(NC(=O)Cn2nc3c(N4CCSCC4)nccn3c2=O)c1`, the RP-LC retention time was determined as 930 s.
The compound `Cc1ccc2cc(CCC(=O)NCCc3ccncc3)c(=O)[nH]c2c1` returned an RP-LC retention time of 589 s.
For `O=C(Cn1c(=O)oc2ccccc21)N1CCCc2ccccc21` the value was 866 s; for `CCc1nc2ccccc2c(=O)n1Cc1noc(C2CC(=O)N(c3ccccc3)C2)n1` (stereo unspecified), 823 s.
For the compound `Cc1cc(F)ccc1NC(=O)Cn1c(N)nc(C)c(C)c1=O`, the RP-LC retention time turned out to be 617 s.
`Cc1cccc(Nc2ncccc2C(=O)O)c1C` had an RP-LC retention time of 707 s.
Next, `COc1ccc(-c2nc(-c3cccc(-c4ccnn4C)c3)no2)cc1`: 1120 s; `O=C(NCCS(=O)(=O)N1CCc2ccccc2C1)c1cc(=O)c2ccccc2o1`: 733 s.
Compound `COCCCN(CC(=O)N1CCc2sccc2C1COc1ccccc1F)C(C)=O` (stereo unspecified) showed an RP-LC retention time of 764 s.
With `COCCN1C(=O)c2ccccc2C(C(=O)NCc2ccc(F)cc2)C12CCCCC2` (stereo unspecified), the RP-LC retention time was found to be 877 s.
Next, `CCOC(=O)c1c(NCCC(C)C)c2ccc(Cl)cc2[nH]c1=O`: 900 s; `COc1ccc(C(=O)Nc2nc(-c3ccc4c(c3)NC(=O)CO4)c(C)s2)cc1`: 881 s.
Turning to `Cn1nc(-c2nnc(-c3ccccc3Cl)o2)c2c1CCN(C(=O)c1ccc(C(F)(F)F)cc1)C2`, the RP-LC retention time came out at 943 s.
`CC(C)NC(=O)N(CC(=O)N1CCc2sccc2C1COc1cccc(F)c1)CC1CCCO1` (stereo unspecified) yielded an RP-LC retention time of 950 s.
Next, `CCC(C)Nc1nc2c(c(=O)n(C)c(=O)n2C)n1C` (stereo unspecified): 742 s; `COc1cc(CNC(=O)c2ccc(Cc3c(C)noc3C)o2)cc(OC)c1OC`: 744 s.
With `Cc1noc(C2CN(C(=O)Cc3noc4ccccc34)C2)n1`, the RP-LC retention time was determined as 642 s.
Next, `COCc1nnc(-c2cc(C)cc(C)c2)o1`: 857 s; `Cc1ncsc1C1N(C2CCN(C(=O)Nc3ccccc3)CC2)C(=O)C12CCCC2` (stereo unspecified): 749 s.
For `COc1cccc(CNC(=O)C2(C)CCCN(C(=O)Nc3ccc(Br)cc3)C2)c1` (stereo unspecified) the value was 969 s; for `O=C(Nc1ccc(OCC(=O)N2CCN(c3ccc(Cl)cc3)CC2)nc1)C1CC1`, 808 s.
The compound `O=C(NC1CCCC1)C1c2cccn2CC(=O)N1c1cccc(Cl)c1` (stereo unspecified) registered an RP-LC retention time of 870 s.
Turning to `Cc1ccn2cc(-c3ccc(NC(=O)/C=C/c4ccccc4)cc3)nc2n1`, the RP-LC retention time amounted to 673 s.
For the compound `CC(=O)N1CCc2cc(N3CC(C(=O)NCc4ccc(F)cc4)CC3=O)ccc21` (stereo unspecified), the RP-LC retention time amounted to 740 s.
Turning to `O=C(CC1CCCC1)N1CC(c2nc(-c3ccccc3)no2)C2(CCOCC2)C1` (stereo unspecified), the RP-LC retention time came to 923 s.
For `O=C(NC1CCCCCC1)C1CCN(S(=O)(=O)c2cc(C(=O)N3CCCC3)cs2)CC1` the value was 820 s; for `CCCCCC(=O)Nc1cc(-c2nc3ccc(C)cc3[nH]2)ccc1C`, 750 s; for `CCOC(=O)c1cccc(Nc2nc(C)nc3c2CCC3)c1`, 654 s.
Consider `O=C(Nc1cccc([N+](=O)[O-])c1)C1(c2cccs2)CCOCC1`, for which the RP-LC retention time is 558 s.
On to `O=C(NCc1cccnc1)C1c2ccccc2C(=O)N1C1CCCCCC1` (stereo unspecified), for which the RP-LC retention time was 624 s.
`O=C(CN1C(=O)CCCc2cc(S(=O)(=O)N3CCCCC3)ccc21)NCc1ccc(F)cc1` registered an RP-LC retention time of 862 s.
As to `CN1C(=O)[C@H]2CN(Cc3ccc(Cl)c(F)c3)C[C@H]2C1=O`, the RP-LC retention time was determined as 632 s.
In turn, `O=S(=O)(c1c(F)cccc1F)N1CCC2(CC1)OCCS2` gave an RP-LC retention time of 860 s.
Take `Cc1cc(C(=O)Nc2nc3c(C)cc(Cl)cc3s2)on1`: the RP-LC retention time came out at 985 s.
